Results as given in paper PMC7044277 (Nature Communications, 2020).
“And” between values parts separate entries of the source, which are not always exact repeats. Equal values may be shown once.

How the values were obtained:
Assay type in all cases: cell-based
Set-up in all cases: GPCRome screening signal at PTGIR / GPCRome screening signal at PTH1R / GPCRome screening signal at PTH2R / GPCRome screening signal at QRFP / GPCRome screening signal at RXFP2 / GPCRome screening signal at RXFP3 / GPCRome screening signal at RXFP4 / GPCRome screening signal at S1PR2 / GPCRome screening signal at S1PR3 / GPCRome screening signal at S1PR4 / GPCRome screening signal at S1PR5 / GPCRome screening signal at SCTR / GPCRome screening signal at SSTR2 / GPCRome screening signal at SSSTR / GPCRome screening signal at SSTR4 / GPCRome screening signal at SSTR5 / GPCRome screening signal at SUCNR1 / GPCRome screening signal at TA1 / GPCRome screening signal at TAAR2 / GPCRome screening signal at TAAR5 / GPCRome screening signal at TAAR6 / GPCRome screening signal at TAAR8 / GPCRome screening signal at TACR1 / GPCRome screening signal at TACR2 / GPCRome screening signal at TACR3 / GPCRome screening signal at TBXA2R / GPCRome screening signal at TSHR / GPCRome screening signal at UTS2R / GPCRome screening signal at VIPR2 / GPCRome screening signal at GPR68 no V2 Tail / GPCRome screening signal at GRM2 / GPCRome screening signal at GRM3: reference not given here
320 non-olfactory GPCRs [1] = target: 320 non-olfactory GPCRs (Homo sapiens, UniProt P31391); conditions: receptor SSTR4
320 non-olfactory GPCRs [2] = target: T1, 320 non-olfactory GPCRs (Homo sapiens, UniProt Q96RI8); conditions: receptor TAAR6
T1 construct: expressed in transfected cells; host or cells: HTLA cells

320 non-olfactory GPCRs [3] = target: T2, 320 non-olfactory GPCRs (Homo sapiens, UniProt Q8TDU9); conditions: receptor RXFP4
T2 construct: expressed in transfected cells; host or cells: HTLA cells

320 non-olfactory GPCRs [4] = target: T3, 320 non-olfactory GPCRs (Homo sapiens, UniProt Q8WXD0); conditions: receptor RXFP2
T3 construct: expressed in transfected cells; host or cells: HTLA cells

[5] = Fig_5f, single replicate values
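Wherever GPCRome agonism screen response is given: fold over basal response of each receptor without drug.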

320 non-olfactory GPCRs (Homo sapiens, UniProt P31391), sequence (P31391 whole entry): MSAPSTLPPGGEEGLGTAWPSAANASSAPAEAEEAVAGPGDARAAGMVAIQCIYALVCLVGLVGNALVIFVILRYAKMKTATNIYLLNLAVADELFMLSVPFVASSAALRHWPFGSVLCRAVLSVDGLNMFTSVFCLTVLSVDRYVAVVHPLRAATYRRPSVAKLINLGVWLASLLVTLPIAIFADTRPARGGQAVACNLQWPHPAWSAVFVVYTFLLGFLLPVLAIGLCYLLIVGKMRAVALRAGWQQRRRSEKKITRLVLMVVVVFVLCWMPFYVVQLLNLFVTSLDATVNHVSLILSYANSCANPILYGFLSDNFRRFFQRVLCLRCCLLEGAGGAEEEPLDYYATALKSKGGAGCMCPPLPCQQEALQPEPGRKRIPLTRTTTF
T1 sequence (Q96RI8 whole entry): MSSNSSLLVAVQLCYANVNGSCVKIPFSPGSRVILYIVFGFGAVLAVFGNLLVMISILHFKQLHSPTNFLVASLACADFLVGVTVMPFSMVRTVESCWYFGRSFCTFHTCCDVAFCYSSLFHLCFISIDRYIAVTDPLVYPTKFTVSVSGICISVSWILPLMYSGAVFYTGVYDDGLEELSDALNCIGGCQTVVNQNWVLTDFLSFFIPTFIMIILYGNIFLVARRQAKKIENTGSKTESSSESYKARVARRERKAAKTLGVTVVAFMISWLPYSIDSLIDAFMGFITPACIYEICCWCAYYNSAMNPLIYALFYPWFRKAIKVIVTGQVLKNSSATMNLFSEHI
T2 sequence (Q8TDU9 whole entry): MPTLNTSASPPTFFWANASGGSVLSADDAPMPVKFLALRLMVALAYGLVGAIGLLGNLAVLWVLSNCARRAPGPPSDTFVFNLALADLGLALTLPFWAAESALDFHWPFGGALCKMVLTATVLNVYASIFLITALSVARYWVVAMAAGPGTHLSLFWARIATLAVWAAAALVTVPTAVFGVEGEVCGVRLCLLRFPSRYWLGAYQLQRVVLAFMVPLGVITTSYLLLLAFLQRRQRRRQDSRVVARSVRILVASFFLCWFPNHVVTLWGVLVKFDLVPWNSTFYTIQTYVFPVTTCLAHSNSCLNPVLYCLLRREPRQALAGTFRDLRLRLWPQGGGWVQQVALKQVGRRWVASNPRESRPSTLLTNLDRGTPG
T3 sequence (Q8WXD0 whole entry): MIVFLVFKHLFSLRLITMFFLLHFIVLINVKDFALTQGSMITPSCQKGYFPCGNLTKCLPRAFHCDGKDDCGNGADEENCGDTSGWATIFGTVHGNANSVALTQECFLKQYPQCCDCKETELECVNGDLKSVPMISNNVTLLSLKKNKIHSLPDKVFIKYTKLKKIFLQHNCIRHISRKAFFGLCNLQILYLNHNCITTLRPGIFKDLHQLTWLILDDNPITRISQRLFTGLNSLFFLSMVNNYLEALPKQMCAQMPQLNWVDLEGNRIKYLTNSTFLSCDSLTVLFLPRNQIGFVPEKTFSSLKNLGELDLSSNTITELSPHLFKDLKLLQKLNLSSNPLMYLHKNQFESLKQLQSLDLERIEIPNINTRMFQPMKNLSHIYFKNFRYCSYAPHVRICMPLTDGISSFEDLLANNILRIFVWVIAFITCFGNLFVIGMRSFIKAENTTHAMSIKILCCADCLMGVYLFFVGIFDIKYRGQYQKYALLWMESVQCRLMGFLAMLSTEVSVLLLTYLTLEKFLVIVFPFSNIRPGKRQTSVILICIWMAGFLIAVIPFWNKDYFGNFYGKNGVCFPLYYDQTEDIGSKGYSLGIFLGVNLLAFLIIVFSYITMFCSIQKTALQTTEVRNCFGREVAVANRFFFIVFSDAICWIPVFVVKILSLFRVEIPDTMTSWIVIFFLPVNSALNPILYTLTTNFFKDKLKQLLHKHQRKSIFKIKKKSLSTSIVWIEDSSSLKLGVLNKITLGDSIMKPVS

| SMILES | GPCRome screening signal at SSTR4 (320 non-olfactory GPCRs [1]; [5]) | GPCRome screening signal at TAAR6 (320 non-olfactory GPCRs [2]; [5]) | GPCRome screening signal at RXFP4 (320 non-olfactory GPCRs [3]; [5]) | GPCRome screening signal at RXFP2 (320 non-olfactory GPCRs [4]; [5]) | GPCRome agonism screen response (320 non-olfactory GPCRs [1]; replicate values, Fig_4g) | GPCRome agonism screen response (320 non-olfactory GPCRs [2]; replicate values, Fig_4g) | GPCRome agonism screen response (320 non-olfactory GPCRs [3]; replicate values, Fig_4g) | GPCRome agonism screen response (320 non-olfactory GPCRs [4]; replicate values, Fig_4g) |
| --- | --- | --- | --- | --- | --- | --- | --- | --- |
| CCOc1ccccc1CCC(C)NCC1(O)CCCCC1.Cl (racemic) [Fig_5f] | 1.303 and 1.0005 and 1.096 and 1.043 | 0.9086 and 0.7284 and 0.9687 and 0.7288 | 0.4319 and 1.123 and 0.5997 and 0.5278 | 1.049 and 1.08 and 1.42 and 0.7752 |  |  |  |  |
| CCOc1cccc2cc(C(C)NCC3(O)CCCCC3)oc12 (centres unmarked) [O4LE6] |  |  |  |  | 1.584 and 2.327 and 0.4288 and 0.2624 | 1.686 and 0.9412 and 0.4865 and 0.01025 | 0.5888 and 1.446 and 0.8124 and 1.384 | 0.9912 and 0.8618 and 0.6803 and 0.6522 |
